Assay results as given in PubChem BioAssay (NCI).
Several values for one entry are separate records, joined by “and”; a condition that tells them apart may be missing. Identical values can stand only once.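 Each compound was tested at five concentrations against cells in 96-well plates for 48 hours. GI50 is the concentration that inhibits growth by half. TGI is the concentration that stops growth completely.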

Assays:
Test in all cases: DTP human tumour cell line panel, 48 h
SNB-19 CNS = test system: SNB-19 CNS
RXF 393 renal = test system: RXF 393 renal
HT29 colon = test system: HT29 colon
A498 renal = test system: A498 renal
MALME-3M melanoma = test system: MALME-3M melanoma
EKVX NSCLC = test system: EKVX NSCLC
NCI-H23 lung = test system: NCI-H23 lung
SF-539 CNS = test system: SF-539 CNS
HCC-2998 colon = test system: HCC-2998 colon
OVCAR-8 ovarian = test system: OVCAR-8 ovarian

SMILES	TGI (SNB-19 CNS)	TGI (RXF 393 renal)	TGI (HT29 colon)	TGI (A498 renal)	TGI (MALME-3M melanoma)	GI50 (EKVX NSCLC)	TGI (EKVX NSCLC)	TGI (NCI-H23 lung)	TGI (SF-539 CNS)	TGI (HCC-2998 colon)	GI50 (OVCAR-8 ovarian)	TGI (OVCAR-8 ovarian)	GI50 (SNB-19 CNS)	GI50 (RXF 393 renal)	GI50 (HT29 colon)	GI50 (A498 renal)	GI50 (MALME-3M melanoma)	GI50 (NCI-H23 lung)	GI50 (SF-539 CNS)	GI50 (HCC-2998 colon)
[C-]#[O+].[C-]#[O+].[Ir].[O-]c1ccc2ccccc2c1N=Nc1ccccc1	> 70.7 µM	6.78 µM	20.6 µM	33.3 µM	13 µM	19.4 µM	49.1 µM	31.7 µM	50.4 µM	29.4 µM	13.6 µM	38.7 µM	–	–	–	–	–	–	–	–
COc1ccc(-c2ccc3ncc4c(c3c2)n(-c2ccc(N3CCNCC3)c(C(F)(F)F)c2)c(=O)n4C)cn1	1.2 µM and 0.254 µM	< 0.0323 µM and 0.00977 µM	0.122 µM and 0.393 µM	< 0.01 µM and 0.012 µM	0.03 µM and 0.0353 µM	< 0.01 µM and 0.00426 µM	0.0379 µM and 0.258 µM	0.424 µM and 0.439 µM	0.0606 µM and 0.0587 µM	1.34 µM and 0.269 µM	< 0.01 µM and 0.00948 µM	0.332 µM and 0.396 µM	< 0.01 µM and 0.00778 µM	< 0.01 µM and 0.0018 µM	< 0.01 µM and 0.00658 µM	< 0.01 µM and 0.00224 µM	< 0.01 µM and 0.00404 µM	< 0.0131 µM and 0.0156 µM	< 0.011 µM and 0.0132 µM	< 0.01 µM and 0.00675 µM
Clc1nc(Cl)c2ncn(C/C=C/Cn3cnc4c(Cl)nc(Cl)nc43)c2n1	38 µM	6.42 µM	29.9 µM	41.2 µM	52.5 µM	20.5 µM	36.9 µM	38 µM	41 µM	31.4 µM	6.11 µM	21 µM	19.1 µM	2.3 µM	14.7 µM	21.5 µM	31.2 µM	18.7 µM	21.3 µM	16 µM
O=C(c1ccco1)c1ccccc1C(=O)c1ccco1	> 100 µM	> 100 µM	> 100 µM	> 100 µM	> 100 µM	–	> 100 µM	> 100 µM	> 100 µM	> 100 µM	–	> 100 µM	–	–	–	–	–	–	–	–
COc1cccc2c1C(=O)c1c(O)c3c(c(O)c1C2=O)C[C@@](O)(C(=O)CO)C[C@@H]3OC1CC(OC(C)=O)C(OC(C)=O)C(C)O1 (some centres not stated)	> 100 µM	3.72 µM	> 32.1 µM	1.62 µM	2.19 µM	1.92 µM	9.5 µM	1.5 µM	1.9 µM	3.19 µM	0.479 µM	> 58.1 µM	0.496 µM	1.41 µM	1.02 µM	0.127 µM	0.502 µM	0.227 µM	0.267 µM	1.28 µM
